Here are results for 39 compounds from US20020155519A1 (priority 1997, published 2002).

“Also recorded” adds a separate entry of the source. Where two headings read alike, the source gives them in different places.

Experiment [1] has as its system human blood bacterium (HBB). In words: Resistance of HBB to detergents and disinfectants. The class given is cell-based. The following applies: for resistance of HBB to detergent (lysis): 0.1%.
Experiment [2] has as its system human blood bacterium (HBB). The class given is cell-based. The protocol: Normally 1 ml of serum was added to 9 ml of medium. Larger flasks with a proportionately larger amount of serum and medium are used to produce bacteria in quantity. Modulators might be added to some flasks in 10× or higher concentration (corresponding to addition of 1 ml or less). When examining the effect of modulators, control flasks were prepared similarly without the addition of the modulator. Levels were observed microscopically (inverted phase microscope, observing the number of organisms per field crudely or by actual count) after incubation, typically at several points in time.
When multiple comparisons were done at once, they were done in 12 well or 24 well cell culture plates, most often the latter. With the latter, typically 1 ml of medium inoculated with serum is added to each well, with modulators added at 10× or higher concentration (0.1 ml or less). When comparisons are done in well plates, control wells without any additions are included. Levels were observed microscopically (inverted phase microscope) after incubation, typically at several points in time. The well plate cultures were also used for antibiotic sensitivity testing.
These procedures are those known in the art and include uses of antibodies and DNA probes, Western and Southern blots, PCR and the diagnostic kits therefor. First, organisms can be quantified by culture. […] If a means is found to immobilize the bacteria to grow isolated colonies, counts will be more accurate. Quantification is used to follow the progress of treatment and to correlate HBB levels with specific disease syndromes. Quantification is used also for antibiotic sensitivity measurements, comparing the level of growth with antibiotic treatment to the level of growth without treatment. Such antibiotic sensitivity measurements establish the basis for the clinical choice of antibiotic drugs.

A further experiment has as its system yeast-like forms of HBB. In words: Suppression of yeast-like forms of HBB by antifungal agents. The class given is cell-based, human blood bacterium (HBB).
Experiment [3] concerns extracellular exudate and the bacteria (HBB). In words: Lectin binding to HBB exudate (slime) and bacteria. Further details: species or system human blood bacterium (HBB). From the text:
The amount of the exudate produced is strongly influenced by or dependent upon the composition of the culture medium. The current medium formulae (L and O) have been designed to reduce slime production. In the original, crude medium, a centrifuged culture may consist of more than 10% of this gel by volume. In the L and O media, older cultures of HBB may develop a thin layer of gel that traps the cells and makes them adherent to the culture flask.

In the case of `CCCCCCCCCCCCOS(=O)(=O)[O-].[Na+]` [SDS], in experiment [1], the “resistance of HBB to detergent (lysis)” value is on record as “does cause lysis”.

Take `CC[C@H]1OC(=O)[C@H](C)[C@@H](O[C@H]2C[C@@](C)(OC)[C@@H](O)[C@H](C)O2)[C@H](C)[C@@H](O[C@@H]2O[C@H](C)C[C@H](N(C)C)[C@H]2O)[C@](C)(O)C[C@@H](C)CN(C)[C@H](C)[C@@H](O)[C@]1(C)O` [azothromycin]: in experiment [2], the “antibiotic sensitivity of HBB strains/isolates in culture” value is recorded as “some strains show sensitivity; also recorded: often stimulate growth”; the “observed antibiotic and antifungal sensitivities (outcome, number of isolates)” value is given as “no effect (6 isolates); also recorded: sensitive (7 isolates)”.

For the compound `CC1=C(C(=O)O)N2C(=O)[C@@H](NC(=O)[C@H](N)c3ccc(O)cc3)[C@H]2SC1` [cefadroxil], in experiment [2], the “observed antibiotic and antifungal sensitivities (outcome, number of isolates)” value is listed as “no effect (1 isolate)”.

`CC1=C(C(=O)O)N2C(=O)[C@@H](NC(=O)[C@H](N)c3ccccc3)[C@H]2SC1` [cephalexin]: the “observed antibiotic and antifungal sensitivities (outcome, number of isolates)” value in experiment [2] is recorded as “no effect (1 isolate)”.

For `CCN(CC)CCCC(C)Nc1ccnc2cc(Cl)ccc12` (centres unmarked) [chloroquin], the “antibiotic sensitivity of HBB strains/isolates in culture” value in experiment [2] (concentration not printed) was “synergistic effect with a few isolates”.

As to `O=C(O)c1cn(C2CC2)c2cc(N3CCNCC3)c(F)cc2c1=O` [ciprofloxacin], in experiment [2], the “antibiotic sensitivity of HBB strains/isolates in culture” value was “Some strains are sensitive”; the “observed antibiotic and antifungal sensitivities (outcome, number of isolates)” value is listed as “no effect (5 isolates); also recorded: partially sensitive (1 isolate)”.

As for `CC[C@H]1OC(=O)[C@H](C)[C@@H](O[C@H]2C[C@@](C)(OC)[C@@H](O)[C@H](C)O2)[C@H](C)[C@@H](O[C@@H]2O[C@H](C)C[C@H](N(C)C)[C@H]2O)[C@](C)(OC)C[C@@H](C)C(=O)[C@H](C)[C@@H](O)[C@]1(C)O` [clarithromycin], the “antibiotic sensitivity of HBB strains/isolates in culture” value is “some strains show sensitivity; also recorded: often stimulate growth” in experiment [2] (concentration not printed) and “appears more effective in culture” in experiment [2] (concentration not printed, listed as Clarithromycin).

Take `Clc1ccccc1C(c1ccccc1)(c1ccccc1)n1ccnc1` [clotrimazol]: in the experiment on yeast-like forms of HBB, the “suppression of yeast-like forms” value is recorded as “no suppression”. The “observed antibiotic and antifungal sensitivities (outcome, number of isolates)” value in experiment [2] was “no effect (1 isolate)”.

For `Cc1onc(-c2ccccc2Cl)c1C(=O)N[C@@H]1C(=O)N2[C@@H]1SC(C)(C)[C@@H]2C(=O)O` [cloxacillin], the “observed antibiotic and antifungal sensitivities (outcome, number of isolates)” value in experiment [2] (2 μg/ml) was “no effect (16 isolates); also recorded: sensitive (5 isolates); also recorded: growth stimulated (6 isolates)”. Further, in experiment [2] (concentration not printed), the “antibiotic sensitivity of HBB strains/isolates in culture” value is reported as “occasional isolates show higher sensitivity”.

Turning to `Nc1ccc(S(=O)(=O)c2ccc(N)cc2)cc1` [dapsone], the “observed antibiotic and antifungal sensitivities (outcome, number of isolates)” value in experiment [2] is listed as “no effect (1 isolate)”.

Take `CC[C@H]1OC(=O)[C@H](C)[C@@H](O[C@H]2C[C@@](C)(OC)[C@@H](O)[C@H](C)O2)[C@H](C)[C@@H](O[C@@H]2O[C@H](C)C[C@H](N(C)C)[C@H]2O)[C@](C)(O)C[C@@H](C)C(=O)[C@H](C)[C@@H](O)[C@]1(C)O` [erythromycin]: the “antibiotic sensitivity of HBB strains/isolates in culture” value in experiment [2] was “resistant”.

In the case of `Oc1c(Cl)cc(Cl)c(Cl)c1Cc1c(O)c(Cl)cc(Cl)c1Cl` [hexachlorophene], in experiment [1], the “resistance of HBB to disinfectant” value was “resistant”.

With `CCN(CCO)CCCC(C)Nc1ccnc2cc(Cl)ccc12` (centres unmarked) [hydroxychloroquin], the “antibiotic sensitivity of HBB strains/isolates in culture” value in experiment [2] (concentration not printed) was “synergistic effect with a few isolates”.

As to `NNC(=O)c1ccncc1` [isoniazid], in experiment [2] (2 μg/ml), the “observed antibiotic and antifungal sensitivities (outcome, number of isolates)” value was “no effect (24 isolates); also recorded: sensitive (5 isolates); also recorded: growth stimulated (6 isolates)”. For the same compound, in experiment [2] (concentration not printed), the “antibiotic sensitivity of HBB strains/isolates in culture” value was “some isolates are sensitive”.

Regarding `Clc1ccc(COC(Cn2ccnc2)c2ccc(Cl)cc2Cl)c(Cl)c1` (centres unmarked) [miconazol], the “suppression of yeast-like forms” value in the experiment with yeast-like forms of HBB is on record as “no suppression”. Moreover, the “observed antibiotic and antifungal sensitivities (outcome, number of isolates)” value in experiment [2] was “no effect (1 isolate)”.

On to `CCCCCCCCCCCCN(C)CC(=O)O` [n-laurylsarcosine], for which the “resistance of HBB to detergent (lysis)” value in experiment [1] is recorded as “resist”.

In the case of `CCn1cc(C(=O)O)c(=O)c2ccc(C)nc21` [nalidixic acid], in experiment [2] (4 μg/ml), the “observed antibiotic and antifungal sensitivities (outcome, number of isolates)” value is “no effect (1 isolate)”.

Regarding `C[C@@H]1[C@H](O)[C@@H](C)/C=C/C=C/CC/C=C/C=C/C=C/C=C/C(O[C@H]2O[C@H](C)[C@@H](O)[C@H](N)[C@@H]2O)CC2O[C@](O)(CC(O)C(O)CCC(O)CC(O)CC(O)CC(=O)O[C@H]1C)CC(O)C2C(=O)O` (some centres unmarked) [nystatin], in the experiment on yeast-like forms of HBB, the “suppression of yeast-like forms” value was “no suppression”. The “observed antibiotic and antifungal sensitivities (outcome, number of isolates)” value in experiment [2] (saturated) is “no effect (1 isolate)”.

In the case of `Cc1onc(-c2ccccc2)c1C(=O)N[C@@H]1C(=O)N2[C@@H]1SC(C)(C)[C@@H]2C(=O)O` [oxacillin], in experiment [2], the “antibiotic sensitivity of HBB strains/isolates in culture” value is recorded as “occasional isolates show higher sensitivity”.

In the case of `CC1(C)S[C@@H]2[C@H](NC(=O)Cc3ccccc3)C(=O)N2[C@H]1C(=O)O` [penicillin G], the “antibiotic sensitivity of HBB strains/isolates in culture” value in experiment [2] (concentration not printed) is “relatively sensitive”.

Take `CC1(C)S[C@@H]2[C@H](NC(=O)COc3ccccc3)C(=O)N2[C@H]1C(=O)O` [penicillin V]: in experiment [2] (1-2 μg/ml), the “observed antibiotic and antifungal sensitivities (outcome, number of isolates)” value is on record as “no effect (27 isolates); also recorded: sensitive (17 isolates); also recorded: growth stimulated (4 isolates)”. Moreover, in experiment [2] (concentration not printed), the “antibiotic sensitivity of HBB strains/isolates in culture” value is on record as “relatively sensitive”.

Take `COc1cc(NC(C)CCCN)c2ncccc2c1` (centres unmarked) [primaquine]: the “observed antibiotic and antifungal sensitivities (outcome, number of isolates)” value in experiment [2] is given as “no effect (31 isolates); also recorded: sensitive (15 isolates); also recorded: growth stimulated (1 isolate)”.

For `CCN(CC)CCCC(C)Nc1c2ccc(Cl)cc2nc2ccc(OC)cc12` (centres unmarked) [quinacrine], the “observed antibiotic and antifungal sensitivities (outcome, number of isolates)” value in experiment [2] was “no effect (1 isolate)”.

As to `O=C([O-])c1ccccc1.[Na+]` [sodium benzoate], the “suppression of yeast-like forms” value in the experiment on yeast-like forms of HBB is “no suppression”. Moreover, the “observed antibiotic and antifungal sensitivities (outcome, number of isolates)” value in experiment [2] (50 μg/ml) was “no effect (1 effect)”.

For the compound `CCC(=O)[O-].[Na+]` [sodium propionate], the “suppression of yeast-like forms” value in the experiment with yeast-like forms of HBB is listed as “no suppression”. In addition, in experiment [2] (50-250 μg/ml), the “observed antibiotic and antifungal sensitivities (outcome, number of isolates)” value is on record as “no effect (2 isolates)”.

As for `CCCCCCCCCCC(=O)[O-].[Na+]` [sodium undecylate], in the experiment on yeast-like forms of HBB, the “suppression of yeast-like forms” value is “no suppression”. For the same compound, the “observed antibiotic and antifungal sensitivities (outcome, number of isolates)” value in experiment [2] (50 μg/ml) was “no effect (1 isolate)”.

For the compound `Cc1cc(NS(=O)(=O)c2ccc(N)cc2)no1` [sulfamethoxazole], the “antibiotic sensitivity of HBB strains/isolates in culture” value in experiment [2] was “no effect (1 isolate)”.

Consider `Nc1ccc(S(=O)(=O)Nc2ccccn2)cc1` [sulfapyridine], for which the “observed antibiotic and antifungal sensitivities (outcome, number of isolates)” value in experiment [2] is “no effect (6 isolates); also recorded: no effect (1 isolate)”.

Take `O=C(O)c1cc(/N=N/c2ccc(S(=O)(=O)Nc3ccccn3)cc2)ccc1O` [sulfasalazine]: the “observed antibiotic and antifungal sensitivities (outcome, number of isolates)” value in experiment [2] is “no effect (6 isolates); also recorded: no effect (isolate)”.

On to `Cc1cccc(N(C)C(=S)Oc2ccc3ccccc3c2)c1` [tolnaftate], for which the “observed antibiotic and antifungal sensitivities (outcome, number of isolates)” value in experiment [2] (2 μg/ml) is recorded as “no effect (1 isolate)”.

Regarding `COc1cc(Cc2cnc(N)nc2N)cc(OC)c1OC` [trimethoprim], in experiment [2], the “antibiotic sensitivity of HBB strains/isolates in culture” value is recorded as “resistance”; the “observed antibiotic and antifungal sensitivities (outcome, number of isolates)” value is “no effect (1 isolate)”.

Turning to `CN[C@H](CC(C)C)C(=O)N[C@H]1C(=O)N[C@@H](CC(N)=O)C(=O)N[C@H]2C(=O)N[C@H]3C(=O)N[C@H](C(=O)N[C@H](C(=O)O)c4cc(O)cc(O)c4-c4cc3ccc4O)[C@H](O)c3ccc(c(Cl)c3)Oc3cc2cc(c3O[C@@H]2O[C@H](CO)[C@@H](O)[C@H](O)[C@H]2O[C@H]2C[C@](C)(N)[C@H](O)[C@H](C)O2)Oc2ccc(cc2Cl)[C@H]1O` [vancomycin], the “observed antibiotic and antifungal sensitivities (outcome, number of isolates)” value in experiment [2] is listed as “no effect (1 isolate)”.

Take NP-40: in experiment [1], the “resistance of HBB to detergent (lysis)” value is listed as “resist”.

Take Triton X: in experiment [1], the “resistance of HBB to detergent (lysis)” value is “resist”.

For Tween-20, in experiment [1], the “resistance of HBB to detergent (lysis)” value is “resist”.

As to amphoptericin, in the experiment on yeast-like forms of HBB, the “suppression of yeast-like forms” value is listed as “no suppression”. In experiment [2] (0.25 μg/ml), the “observed antibiotic and antifungal sensitivities (outcome, number of isolates)” value is reported as “no effect (1 isolate)”.

Take benzalkonium chloride: the “resistance of HBB to disinfectant” value in experiment [1] (1:1000) is given as “resistant”.

Consider gentamycin, for which the “observed antibiotic and antifungal sensitivities (outcome, number of isolates)” value in experiment [2] (2 μg/ml) is listed as “no effect (1 isolate)”.

As for wheat germ agglutinin, the “binding of lectin to exudate and bacteria” value in experiment [3] was “bind”.
